Measured values reported in patent US20260226042A1, “C[…] H[…] PROCESSES FOR PREPARING THE SAME” (OLON S.P.A., priority 2023, published 2026).
Where a name gives a salt, the structure may show the parent alone.

Assay: Dynamic Vapor Sorption (DVS) Isotherm of Aceclidine HCl (hydration of anhydrous to hemihydrate form)
Assay type: physicochemical
Description: The conversion from anhydrous to hemihydrate form of Aceclidine HCl (4 mg) was analyzed by a Dynamic Vapor Sorption (DVS) Isotherm.

Row | Structure (SMILES) | weight when environmental humidity content decreased (DVS, FIG. 4) | reversibility of conversion anhydrous to hemihydrate form (DVS, with decreasing relative humidity, FIG. 4) | hygroscopicity (compared to the corresponding anhydrous form) | conversion into other forms without controlled conditions (handling without humidity-controlled conditions (e.g. glove box)) | weight change at which the hemihydrate form formation is obtained (DVS isotherm, weight change % / relative humidity %, 4 mg sample, FIG. 4)
1 | CC(=O)OC1CN2CCC1CC2 (centres unmarked) [Aceclidine HCl hemihydrate] | remained stable | irreversible | low hygroscopicity | not subjected to any conversion | 
2 | CC(=O)OC1CN2CCC1CC2 (centres unmarked) [Anhydrous Aceclidine HCl, anhydrous Aceclidine HCl, reference compound] |  |  |  |  | about 4%
